Measurements published in US9067898B1, “Isothiazole derivatives as GPR120 agonists for the treatment of type II diabetes” (Janssen Pharmaceutica NV, priority 2014, dated 2015).

What was measured:
Assay type in all cases: cell-based
[1] = target: T1, short form of the GPR120 receptor (GPR120S) (Homo sapiens, UniProt Q5NUL3); assay: Human GPR120 DiscoveRx PathHunter Beta-Arrestin assay, Procedure β-arrestin B; settings: PathHunter CHO-K1 GPR120S β-Arrestin cell line, 5000 cells/well, read-out: hGPR120 β-arrestin B EC50
T1 construct: host or cells: PathHunter CHO-K1 GPR120S β-Arrestin Cell Line
Description: The binding of an agonist (medium/long chain fatty acids or small molecule agonists) to the G-protein-coupled receptor GPR120 activates phospholipase C, leading to release of intracellular Ca^+2 through the generation of inositol 1,4,5-trisphosphate (InsP3 or IP3). GPR120 activation can also trigger intracellular signaling via recruitment of Beta-Arrestin. In the present method, agonist-induced activation of the human GPR120 receptor is monitored through the use of PathHunter CHO-K1 GPR120 Beta-Arrestin Cell Line engineered by DiscoveRx, as detailed below. The cell lines are designed to co-express both the ProLink/Enzyme Donor (PK)-tagged GPCR and the Enzyme […] (EA)-tagged Beta-Arrestin fusion proteins. Upon GPR120 receptor stimulation/activation, the EA-tagged Beta-Arrestin portion is translocated to the tagged receptor, where the two enzyme fragments are brought within close proximity. Under these conditions, these fragments can interact and form an active Beta-gal enzyme complex through Enzyme Fragment Complementation (EFC). This active Beta-gal complex can enzymatically hydrolyse the substrate to produce a detectable light signal; therefore, activation as a function of agonist concentration can be expressed as an EC50 value to determine relative compound activities. This in vitro assay therefore serves to assess compound agonist activity of the GPR120. Procedure β-Arrestin A: In Procedure β-arrestin A, the cell used were PathHunter CHO-K1 GPR120 β-Arrestin Cell Line, expressing the long form of human GPR120 (Genbank accession number NM 181745), with 3000 cells per well. Procedure β-Arrestin B: In Procedure 3-arrestin B the cells used were PathHunter CHO-K1 GPR120S β-Arrestin Cell Line, expressing the short form of the GPR120 receptor (Accession #NM_181745), with 5000 cells/well. Assay Procedure:
The selected CHO-K1 GPR120 β-Arrestin cells were cultured in Ham's F12 media supplemented with 10% fetal bovine serum (FBS), 1% Glutamine, lx p/s, 800 μg/mL G418 and 300 μg/mL Hygromycin B (for selection). Cell stocks were maintained and grown in a sub-confluent state using standard cell culture procedures. The day before the experiment, the cells were harvested with non-enzymatic cell dissociation buffer and re-suspended in complete growth media at the desired concentration. A Corning 384-plate was then seeded with the proper number of cells in a volume of 25 μL, per well. The seeded plates were incubated overnight at 37° C.
On the day of the experiment, the Assay Buffer containing (a) HBSS with Ca^++ and Mg^++, (b) 20 mM HEPES, and (c) 0.1% BSA stabilizer (pH 7.4) was prepared. The growth medium was gently removed from the cell plates and 20 μL of Assay Buffer added to each well. The plate was then incubated at 37° C. for 60 min. Test compounds were serially diluted in Assay Buffer to desired concentrations (more particularly to one or more of the following μM concentrations: 25, 12.5, 6.25, 3.125, 1.5625, 0.78125, 0.390625, 0.1953125, 0.09765625, 0.048828125, 0.024414063, 0.012207031). Five μL of compound dilution was then added to each well and the plate incubated at 37° C. for 90 min. The detection reagents were prepared according to the manufacture's instruction. Twelve μL of the detection reagents were added to each well and the plate incubated at room temperature for 60 min.
The plates were read on an EnVision instrument, using Protocol name: Luminescence, Plate type: 384 Costar, Measurement height: 3 mm, Measurement time: 1 s, Aperture: 384 Plate aperture. The % activity relative to the positive control was calculated using the following equation:
The % Activity values were plotted versus the concentration of test compound and fitted to a sigmoidal dose-response curve with a Hill slope=1 (fixed value) using nonlinear regression with GraphPad Prism 5.0 to calculate the EC50 values. […]

[2] = target: T2, Human GPR120 short form (Homo sapiens, UniProt Q5NUL3); assay: Human GPR120 calcium flux assay (FLIPR), Procedure Calcium A; settings: HEK-293 cells expressing human GPR120 short form, 2500 cells/well; read-out: GPR120 Ca2+ Assay A EC50
T2 construct: expressed in transfected cells
T2 sequence (Q5NUL3 1-361): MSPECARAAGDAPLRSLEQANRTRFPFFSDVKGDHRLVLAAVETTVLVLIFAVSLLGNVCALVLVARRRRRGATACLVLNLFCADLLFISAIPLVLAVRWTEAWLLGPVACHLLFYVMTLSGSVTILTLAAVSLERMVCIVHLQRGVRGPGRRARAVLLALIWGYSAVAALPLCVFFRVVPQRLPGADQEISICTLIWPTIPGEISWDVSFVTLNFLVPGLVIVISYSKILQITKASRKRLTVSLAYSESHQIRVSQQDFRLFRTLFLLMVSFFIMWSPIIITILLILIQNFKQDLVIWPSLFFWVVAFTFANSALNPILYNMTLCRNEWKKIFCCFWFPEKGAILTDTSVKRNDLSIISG
Summary of the method: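 HEK293 cells stably expressing the short isoform (NM_001195755.1), 2500/well, starved 1 h, then loaded with Fluo-4 NW plus probenecid (30 min 37 °C, 15 min RT). Compound solutions 0.012–100 μM, 0.2% DMSO final; FLIPR read 300 s after addition. EC50 from Fmax−Fmin fitted to variable-slope sigmoid (Hill <2).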

[3] = target: T3, long form of human GPR120 (Homo sapiens, UniProt Q5NUL3); assay: Human GPR120 DiscoveRx PathHunter Beta-Arrestin assay, Procedure β-arrestin A; settings: PathHunter CHO-K1 GPR120 β-Arrestin cell line, 3000 cells per well, read-out: hGPR120 β-arrestin A EC50
T3 construct: host or cells: PathHunter CHO-K1 GPR120 β-Arrestin Cell Line
Summary of the method: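 PathHunter CHO-K1 β-arrestin cells expressed long-form GPR120 (Procedure A, 3000 cells/well) or short-form GPR120 (Procedure B, 5000 cells/well). Compounds were serially diluted from 25 µM and incubated 90 min at 37 °C in HBSS/20 mM HEPES/0.1% BSA, pH 7.4. Luminescence was read after 60 min detection at RT; EC50 comes from % activity versus positive control, Hill slope fixed at 1.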

T1 sequence (P32121 whole entry partner, one chain of several): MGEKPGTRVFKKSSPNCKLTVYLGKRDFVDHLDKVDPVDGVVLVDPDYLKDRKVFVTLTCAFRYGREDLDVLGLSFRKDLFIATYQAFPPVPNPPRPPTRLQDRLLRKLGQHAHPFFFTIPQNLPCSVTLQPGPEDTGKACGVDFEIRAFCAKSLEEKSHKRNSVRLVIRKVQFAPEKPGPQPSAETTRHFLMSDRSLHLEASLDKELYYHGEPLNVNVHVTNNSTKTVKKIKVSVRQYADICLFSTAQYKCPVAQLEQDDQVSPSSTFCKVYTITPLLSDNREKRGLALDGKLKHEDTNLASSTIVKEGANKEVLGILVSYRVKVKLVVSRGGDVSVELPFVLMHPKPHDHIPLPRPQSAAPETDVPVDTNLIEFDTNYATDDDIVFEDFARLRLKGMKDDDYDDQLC
T3 sequence (Q5NUL3 1-377 isoform Q5NUL3-1): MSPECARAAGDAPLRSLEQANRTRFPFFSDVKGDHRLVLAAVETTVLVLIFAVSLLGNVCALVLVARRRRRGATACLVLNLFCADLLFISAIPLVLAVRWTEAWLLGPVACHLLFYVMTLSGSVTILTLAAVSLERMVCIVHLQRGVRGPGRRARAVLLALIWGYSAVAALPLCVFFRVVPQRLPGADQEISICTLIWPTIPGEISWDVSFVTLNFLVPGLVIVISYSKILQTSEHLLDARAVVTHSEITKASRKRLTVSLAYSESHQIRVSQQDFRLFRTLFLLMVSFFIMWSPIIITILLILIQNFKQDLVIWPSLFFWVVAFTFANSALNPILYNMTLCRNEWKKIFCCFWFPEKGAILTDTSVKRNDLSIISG
T3 sequence (P32121 whole entry partner): as the sequence (P32121 whole entry partner, one chain of several) above

EC50 [1] [nM] | EC50 [2] [nM] | EC50 [3] [nM] | Molecule
1510 | 382 |  | 3-(4-((3-(2,4-difluorophenyl)-5-(trifluoromethyl)isothiazol-4-yl)methoxy)-3,5-difluorophenyl)propanoic acid [Cpd 174]
310 | 107 |  | 3-(4-((3-(4-ethylphenyl)-5-(trifluoromethyl)isothiazol-4-yl)methoxy)-2,3,5-trifluorophenyl)propan-1-ol [Cpd 238]
118 | 89 |  | 3-(4-[[3-(4-ethylphenyl)-5-methoxy-1,2-thiazol-4-yl]methoxy]-2,3-dimethylphenyl)propanoic acid [Cpd 228]
819 | 274 |  | 3-(4-[[5-(4-chlorophenyl)-3-(trifluoromethyl)-1,2-thiazol-4-yl]methoxy]-2-(trifluoromethoxy)phenyl) propanoic acid [Cpd 159]
1940 | 405 |  | 3-(4-[[5-chloro-3-(4-chlorophenyl)thiophen-2-yl]methoxy]-2,3-dimethylphenyl) propanoic acid [Cpd 6]
416 | 67 |  | Cc1ccc(-c2nsc(C(F)(F)F)c2COc2ccc(CCC(=O)O)c(C)c2C)c(F)c1 [Cpd 89, 3-(4-[[3-(2-fluoro-4-methylphenyl)-5-(trifluoromethyl)-1,2-thiazol-4-yl]methoxy]-2,3-dimethylphenyl)propanoic acid]
116 |  |  | O=C(O)CCc1cc(F)c(OCc2c(-c3ccc(F)c(F)c3)nsc2C(F)(F)F)c(F)c1 [Cpd 129, 3-(4-((3-(3,4-difluorophenyl)-5-(trifluoromethyl)isothiazol-4-yl)methoxy)-3,5-difluorophenyl)propanoic acid]
 | 268 | 490 | O=C(O)CCc1cc(F)c(OCc2csnc2-c2ccc(Cl)cc2)c(F)c1 [Cpd 179, 3-(4-((3-(4-chlorophenyl)isothiazol-4-yl)methoxy)-3,5-difluorophenyl)propanoic acid]
 | 300 | 52 | CCc1ccc(-c2snc(Cl)c2COc2c(F)cc(CCCO)cc2F)cc1 [Cpd 183, 3-(4-[[3-chloro-5-(4-ethylphenyl)-1,2-thiazol-4-yl]methoxy]-3,5-difluorophenyl)propan-1-ol]
 | 305 | 889 | O=C(O)CCc1ccc(OCc2csnc2-c2ccc(Br)cc2)c(F)c1F [Cpd 187, 3-(4-((3-(4-bromophenyl)isothiazol-4-yl)methoxy)-2,3-difluorophenyl)propanoic acid]
 | 310 | 612 | O=C(O)CCc1ccc(OCc2csnc2-c2ccc(Cl)cc2)c(F)c1F [Cpd 189, 3-(4-((3-(4-chlorophenyl)isothiazol-4-yl)methoxy)-2,3-difluorophenyl)propanoic acid]
 | 314 | 379 | Cc1c(CCC(=O)O)ccc(OCc2c(-c3ccc(C4CC4)cc3)nsc2C(F)(F)F)c1C [Cpd 190, 3-(4-((3-(4-cyclopropylphenyl)-5-(trifluoromethyl)isothiazol-4-yl)methoxy)-2,3-dimethylphenyl)propanoic acid]
 | 453 | 341 | O=C(O)/C=C/c1cc(F)c(OCc2c(-c3ccc(Cl)cc3)nsc2C(F)(F)F)c(F)c1 [Cpd 201, (E)-3-(4-((3-(4-chlorophenyl)-5-(trifluoromethyl)isothiazol-4-yl)methoxy)-3,5-difluorophenyl)acrylic acid]
 | 551 | 540 | Cc1cc(OCc2c(-c3ncc(Cl)cc3F)nsc2C(F)(F)F)c(F)cc1CCC(=O)O [Cpd 206, 3-(4-((3-(5-chloro-3-fluoropyridin-2-yl)-5-(trifluoromethyl)isothiazol-4-yl)methoxy)-5-fluoro-2-methylphenyl)propanoic acid]
 | 579 | 229 | CCc1ccc(-c2snc(Cl)c2COc2ccc(CCCO)c(C)c2C)cc1 [Cpd 209, 3-(4-((3-chloro-5-(4-ethylphenyl)isothiazol-4-yl)methoxy)-2,3-dimethylphenyl)propan-1-ol]
 | 674 | 466 | CCc1ccc(-c2nsc(C(F)(F)F)c2COc2c(F)cc(CC(C)CO)cc2F)cc1 (stereo not drawn) [Cpd 216, 3-(4-[[3-(4-ethylphenyl)-5-(trifluoromethyl)-1,2-thiazol-4-yl]methoxy]-3,5-difluorophenyl)-2-methylpropan-1-ol]
 | 770 | 182 | Cc1c(CCCO)cc(F)c(OCc2c(-c3ccc(Cl)cc3)nsc2C(F)(F)F)c1F [Cpd 223, 3-(4-((3-(4-chlorophenyl)-5-(trifluoromethyl)isothiazol-4-yl)methoxy)-3,5-difluoro-2-methylphenyl)propan-1-ol]
 | 1020 | 474 | CC(CO)Cc1cc(F)c(OCc2c(-c3ccc(Cl)cc3)nsc2C(F)(F)F)c(F)c1 (stereo not drawn) [Cpd 230, 3-(4-[[3-(4-chlorophenyl)-5-(trifluoromethyl)-1,2-thiazol-4-yl]methoxy]-3,5-difluorophenyl)-2-methylpropan-1-ol]
 | 1020 | 961 | Cc1c(CCC(=O)O)cc(F)c(OCc2csnc2-c2ccc(Cl)cc2)c1F [Cpd 231, 3-(4-((3-(4-chlorophenyl)isothiazol-4-yl)methoxy)-3,5-difluoro-2-methylphenyl)propanoic acid]
96 |  |  | COc1ccc(-c2nsc(C(F)(F)F)c2COc2c(F)cc(CCC(=O)O)cc2F)cc1F [Cpd 237, 3-(3,5-difluoro-4-[[3-(3-fluoro-4-methoxyphenyl)-5-(trifluoromethyl)-1,2-thiazol-4-yl]methoxy]phenyl)propanoic acid]
 | 521 | 90 | CCc1ccc(-c2nsc(C(F)(F)F)c2COc2c(F)cc(CCCO)c(F)c2F)cc1 [Cpd 238, 3-(4-((3-(4-ethylphenyl)-5-(trifluoromethyl)isothiazol-4-yl)methoxy)-2,3,5-trifluorophenyl)propan-1-ol]

Molecule | EC50 [1] [nM] | EC50 [2] [nM] | EC50 [3] [nM]
O=C(O)/C=C/c1ccc(OCc2c(Cl)nsc2-c2ccc(Cl)cc2)c(F)c1F [Cpd 185, (E)-3-(4-((3-chloro-5-(4-chlorophenyl)isothiazol-4-yl)methoxy)-2,3-difluorophenyl)acrylic acid] |  | 301 | 324
